We go through one substance from patent US20200333324A1, “METHOD OF PREDICTING CLINICAL OUTCOME OF ANTICANCER AGENTS” (MITRA RXDX, INC., priority 2017, published 2020).

Common to all, as to format: cell-based, human
Assay [1] concerns Tumor sections. Kind of assay: FACS of CD3+/CD45+ lymphocytes for PD-1, CEACAM, LAG3, TIM3, OX40, ILDR2, 4-1-BB, GITR, tumor sections. The procedure:
(§1) To further probe the phenotypic modulation mediated by treatment with Nivolumab, tumor sections or PBNCs from the same patient cultured for 3 days (72 hours) in the tumor microenvironment platform were treated with Nivolumab or IgG control for one day, followed by flow cytometry gating for lymphocytes based on their forward and side scatter properties. Lymphocytes were further gated for expression of both CD3 and CD45, and this population of cells was analyzed by FACS for expression of PD-1, CEACAM, LAG3, TIM3, OX40, ILDR2, 4-1-BB, and GITR.

In assay [2] the test system is HNSCC tumor tissue. Kind of assay: H&E staining and IHC for Ki67 and Caspase 3 in tumor microenvironment platform. Conditions: patient 2941. On the procedure:
The effects of Pembrolizumab and Nivolumab on proliferation in the tumor microenvironment platform were then evaluated. Tumor sections from the same patient cultured for 72 hours in the tumor microenvironment platform (performed in at least biological triplicate) were treated with Pembrolizumab, Nivolumab, or IgG as control. Tissue was subsequently formalin fixed and paraffin embedded, and processed for H&E staining and immuno histochemical staining (IHC) with Ki67 and Caspase 3 at day 3 in culture (T3). Baseline staining was determined at TO.
The effect of Pembrolizumab and Nivolumab on CD8^+ T cell tumor infiltration was then evaluated. Tumor sections from the same patient cultured for 72 hours in the tumor microenvironment platform were treated with Pembrolizumab, Nivolumab, or IgG as control and stained for H&E, Ki67, Caspase 3, and CD8 at day 3 in culture (T3). Baseline staining was determined at TO. […] CD8^+ T cell infiltration was evaluated in the tumor microenvironment platform with tumor tissue from the same patient, and comparisons for control vs Nivo, control vs Pembro, Nivo vs Pembro, and control vs Nivo vs Pembro for multiple patients are shown in FIG. 6 (each line represents results from the tumor microenvironment platform cultured with tumor tissue from a single individual).

Assay [3] deals with CRC tumor tissue. Kind of assay: Granzyme B and Perforin secretion assays, CRC tumor sections in tumor microenvironment platform. The conditions noted are these: 48 hours. On the procedure: FIGS. 10A and 10B show quantification of results for Granzyme B and Perforin secretion assays for CRC tumor tissue cultured in the tumor microenvironment platform treated with Ipilimumab, Nivolumab, Ipilimumab+Nivolumab, FOLFIRI, or IgG control for 24 or 48 hours.
In another experiment, CRC tumor sections from the same patient cultured for 24 or 48 hours in the tumor microenvironment platform with Ipilimumab, Nivolumab, Ipilimumab+Nivolumab, FOLFIRI, or IgG as control were assayed for Granzyme B and Perforin secretion. Results are shown in FIG. 10A for the tumor microenvironment platform with tumor tissue from a predicted responder and FIG. 10B for the tumor microenvironment platform with tumor tissue from a predicted non-responder. After treatment with Nivolumab for 48 hours, there was an increase in Granzyme B secretion in the tumor microenvironment platform with tissue from the predicted responder compared to treatment with Ipilimumab or the control IgG. By contrast, at 48 hours in the tumor microenvironment platform with tissue from the predicted non-responder there was no increase in Granzyme B or Perforin secretion for treatment with Nivolumab.

Assay [4] deals with PBNCs. Kind of assay: FACS of CD3+/CD45+ lymphocytes for PD-1, CEACAM, LAG3, TIM3, OX40, ILDR2, 4-1-BB, GITR, PBNCs. The procedure:
as §1

Where [5] appears, read: platform containing tumor tissue, vs IgG control.

For the substance Nivolumab, in assay [1] (CD3+/CD45+ lymphocytes, treated one day, control 1.70), the “OX40 Tumor (% total cells)” value was 0 % total cells. Also, in assay [1] (CD3+/CD45+ lymphocytes, treated one day, control 2.04), the “CEACAM Tumor (% total cells)” value is 3.69 % total cells. Further, the “LAG3 Tumor (% total cells)” value in assay [1] (CD3+/CD45+ lymphocytes, treated one day, control 2.22) amounted to 0.52 % total cells. Moreover, in assay [1] (CD3+/CD45+ lymphocytes, treated one day, control 2.60), the “GITR Tumor (% total cells)” value is given as 13.0 % total cells. In addition, the “4-1-BB Tumor (% total cells)” value in assay [1] (CD3+/CD45+ lymphocytes, treated one day, control 4.69) came out at 7.56 % total cells. Also, the “TIM3 Tumor (% total cells)” value in assay [1] (CD3+/CD45+ lymphocytes, treated one day, control 17.8) was 19.9 % total cells. Moreover, in assay [1] (CD3+/CD45+ lymphocytes, treated one day, control 19.4), the “PD-1 Tumor (% total cells)” value is given as 20.5 % total cells. The “ILDR2 Tumor (% total cells)” value in assay [1] (CD3+/CD45+ lymphocytes, treated one day, control 24.4) came out at 17.1 % total cells. Further, in assay [1] (setting [5]), the “number of GITR^+/CD3^+/CD45^+ lymphocytes” value is given as “increase” and the “number of ILDR2^+/CD3^+/CD45^+ lymphocytes” value is recorded as “decrease”. The “proliferation (Ki67 IHC)” value in assay [2] (72 hours, vs IgG control) is “diminished proliferation”. In assay [2] (T3, associated with increased CD8^+ T cell infiltration), the “Caspase 3 activity (IHC)” value was “increased Caspase 3 activity”. In assay [3] (predicted non-responder), the “Granzyme B secretion” value was “no increase” and the Perforin secretion entry is “no increase”. For the same substance, in assay [3] (predicted responder, compared to Ipilimumab or control IgG), the “Granzyme B secretion” value is given as “increase”. In addition, the “CEACAM PBMCs (% total cells)” value in assay [4] (CD3+/CD45+ lymphocytes, treated one day, control 0.12) is 2.74 % total cells. For the same substance, the “LAG3 PBMCs (% total cells)” value in assay [4] (CD3+/CD45+ lymphocytes, treated one day, control 0.14) stood at 0.031 % total cells. The “OX40 PBMCs (% total cells)” value in assay [4] (CD3+/CD45+ lymphocytes, treated one day, control 0.25) is recorded as 0 % total cells. The “4-1-BB PBMCs (% total cells)” value in assay [4] (CD3+/CD45+ lymphocytes, treated one day, control 0.27) was 0.38 % total cells. Also, the “GITR PBMCs (% total cells)” value in assay [4] (CD3+/CD45+ lymphocytes, treated one day, control 0.30) turned out to be 0.50 % total cells. The “ILDR2 PBMCs (% total cells)” value in assay [4] (CD3+/CD45+ lymphocytes, treated one day, control 1.96) came out at 2.67 % total cells. The “PD-1 PBMCs (% total cells)” value in assay [4] (CD3+/CD45+ lymphocytes, treated one day, control 2.94) stood at 0.31 % total cells. Besides, the “TIM3 PBMCs (% total cells)” value in assay [4] (CD3+/CD45+ lymphocytes, treated one day, control 7.91) was found to be 13.9 % total cells. For the same substance, the “ILDR2^+/CD3^+/CD45^+ and GITR^+/CD3^+/CD45^+ cell populations” value in assay [4] (platform containing only PBNCs, vs IgG control) is on record as “No significant change”.
